Measured values reported in patent publication US9062124B2, “GIP-based mixed agonists for treatment of metabolic disorders and obesity” (priority 2008, dated 2015).
Where a SMILES comes first, the peptide text is derived from it. [ ]: non-standard residue; d: D form. The star is where a group is joined. Palmitoyl = CCCCCCCCCCCCCCCC(=O)*; Myristoyl = CCCCCCCCCCCCCC(=O)*; Aib = CC(C)(N)C(=O)O

Columns and labels:
[1] = biological target: T1, glucagon receptor (Homo sapiens, UniProt P47871); test: cAMP synthesis functional assay (firefly luciferase reporter in HEK293 cells), glucagon receptor; type: cell-based; details: for EC50: Glucagon Receptor EC50, cAMP luciferase reporter assay as in Example 16; for % activity at the glucagon receptor: Table 5, relative to the native hormone; for Glucagon Receptor relative activity: relative to the standard (Std.) EC50 of the same run
T1 construct: expressed in transfected cells; host or cells: HEK293
T1 sequence (P47871 26-477): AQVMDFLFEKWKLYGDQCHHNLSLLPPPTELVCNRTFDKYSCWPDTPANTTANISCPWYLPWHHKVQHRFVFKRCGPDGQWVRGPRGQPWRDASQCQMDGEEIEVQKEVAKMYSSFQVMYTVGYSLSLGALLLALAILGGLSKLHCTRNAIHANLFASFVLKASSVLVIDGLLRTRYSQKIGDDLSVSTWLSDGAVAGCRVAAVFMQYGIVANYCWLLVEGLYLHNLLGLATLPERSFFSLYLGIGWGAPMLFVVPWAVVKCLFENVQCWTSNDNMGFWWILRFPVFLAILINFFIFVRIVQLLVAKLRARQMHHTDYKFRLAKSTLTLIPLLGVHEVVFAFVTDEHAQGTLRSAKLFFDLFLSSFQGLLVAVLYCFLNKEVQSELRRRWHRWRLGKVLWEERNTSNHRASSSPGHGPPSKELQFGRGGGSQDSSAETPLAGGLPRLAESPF

[2] = biological target: T2, GLP-1 receptor (Homo sapiens, UniProt P43220); test: cAMP synthesis functional assay (firefly luciferase reporter in HEK293 cells), GLP-1 receptor; type: cell-based; details: for % activity at the GLP-1 receptor: Table 5, relative to the native hormone; for GLP-1 Receptor relative activity: relative to the standard (Std.) EC50 of the same run
T2 construct: expressed in transfected cells; host or cells: HEK293
T2 sequence (P43220 24-463, species assumed): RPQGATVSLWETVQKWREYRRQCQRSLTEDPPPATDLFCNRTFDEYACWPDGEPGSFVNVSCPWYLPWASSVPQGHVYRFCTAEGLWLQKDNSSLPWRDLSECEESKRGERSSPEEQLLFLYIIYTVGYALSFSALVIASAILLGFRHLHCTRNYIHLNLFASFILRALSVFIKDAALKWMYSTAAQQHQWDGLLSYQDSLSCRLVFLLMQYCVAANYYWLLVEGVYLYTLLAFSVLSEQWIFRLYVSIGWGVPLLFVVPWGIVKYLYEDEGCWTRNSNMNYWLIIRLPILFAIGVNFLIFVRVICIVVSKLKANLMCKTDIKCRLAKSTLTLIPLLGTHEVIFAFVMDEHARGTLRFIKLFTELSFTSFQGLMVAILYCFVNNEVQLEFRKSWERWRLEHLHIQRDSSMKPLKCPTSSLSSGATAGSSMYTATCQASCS

[3] = biological target: T3, GIP receptor (Homo sapiens, UniProt P48546); test: cAMP synthesis functional assay (firefly luciferase reporter in HEK293 cells), GIP receptor; type: cell-based; details: for % activity at the GIP receptor: Table 5, relative to the native hormone; for GIP Receptor relative activity: relative to the standard (Std.) EC50 of the same run
T3 construct: expressed in transfected cells; host or cells: HEK293
T3 sequence (P48546 22-466): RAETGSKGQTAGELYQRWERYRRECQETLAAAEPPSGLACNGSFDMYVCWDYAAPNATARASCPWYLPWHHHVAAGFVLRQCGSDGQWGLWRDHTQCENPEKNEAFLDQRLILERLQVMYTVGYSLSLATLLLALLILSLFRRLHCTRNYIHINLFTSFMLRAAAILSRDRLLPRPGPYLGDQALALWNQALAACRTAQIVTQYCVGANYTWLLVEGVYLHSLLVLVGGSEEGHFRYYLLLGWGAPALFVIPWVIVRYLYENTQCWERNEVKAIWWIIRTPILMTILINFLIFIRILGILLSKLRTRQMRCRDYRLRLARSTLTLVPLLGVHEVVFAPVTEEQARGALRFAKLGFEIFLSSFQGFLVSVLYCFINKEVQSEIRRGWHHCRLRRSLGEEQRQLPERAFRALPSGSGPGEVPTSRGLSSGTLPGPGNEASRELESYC

[4] = system: glucagon receptor, GLP-1 receptor or GIP receptor; test: Agonist profile across receptors assigned from the cAMP reporter assay data; type: cell-based; details: assigned from the in vitro EC50 data of Tables 1-4
[5] = Body weight of mice after peptide injection; details: Example 31; DIO mice, subcutaneous daily for 1 week, 10 nmol/kg

SMILES	EC50 [1]	% activity at the glucagon receptor [1]	Glucagon Receptor relative activity [1]	% activity at the GLP-1 receptor [2]	GLP-1 Receptor relative activity [2]	EC50 ([3]; GIP Receptor EC50, cAMP luciferase reporter assay as in Example 16)	% activity at the GIP receptor [3]	GIP Receptor relative activity [3]	receptor activity profile (glucagon / GLP-1 / GIP agonism) [4]	body weight [5]
CCCCCCCCCCCCCCCC(=O)NCCCC[C@H](NC(=O)[C@H](CO)NC(=O)[C@@H]1CCCN1C(=O)[C@@H]1CCCN1C(=O)[C@@H]1CCCN1C(=O)[C@H](C)NC(=O)CNC(=O)[C@H](CO)NC(=O)[C@H](CO)NC(=O)[C@@H]1CCCN1C(=O)CNC(=O)CNC(=O)[C@H](C)NC(=O)[C@H](CC(C)C)NC(=O)[C@H](CC(C)C)NC(=O)[C@H](Cc1c[nH]c2ccccc12)NC(=O)[C@H](CC(N)=O)NC(=O)[C@@H](NC(=O)[C@H](Cc1ccccc1)NC(=O)[C@H](CCC(=O)O)NC(=O)C(C)(C)NC(=O)[C@H](C)NC(=O)[C@H](C)NC(=O)[C@H](CCC(N)=O)NC(=O)[C@H](CCCCN)NC(=O)[C@H](CC(=O)O)NC(=O)[C@H](CC(C)C)NC(=O)[C@H](Cc1ccc(O)cc1)NC(=O)[C@@H](NC(=O)[C@H](CO)NC(=O)[C@H](Cc1ccc(O)cc1)NC(=O)[C@H](CC(=O)O)NC(=O)[C@H](CO)NC(=O)[C@@H](NC(=O)[C@H](Cc1ccccc1)NC(=O)[C@@H](NC(=O)CNC(=O)[C@H](CCC(N)=O)NC(=O)C(C)(C)NC(=O)[C@@H](N)Cc1ccc(O)cc1)[C@@H](C)O)[C@@H](C)O)[C@@H](C)CC)C(C)C)C(N)=O [mt-278] (H-Y[Aib]QGTFTSDYSIYLDKQAA[Aib]EFVNWLLAGGPSSGAPPPSK(Palmitoyl)-NH2; N-terminus assumed)	0.0086 nM	588%	588.37%	460%	459.52%	2.8 pM	846%	846.43%	exhibited activity at the GIP, GLP-1, and glucagon receptors	caused significant weight loss in the mice
CCCCCCCCCCCCCC(=O)NCCCC[C@H](NC(=O)[C@H](CO)NC(=O)[C@@H]1CCCN1C(=O)[C@@H]1CCCN1C(=O)[C@@H]1CCCN1C(=O)[C@H](C)NC(=O)CNC(=O)[C@H](CO)NC(=O)[C@H](CO)NC(=O)[C@@H]1CCCN1C(=O)CNC(=O)CNC(=O)[C@H](C)NC(=O)[C@H](CC(C)C)NC(=O)[C@H](CC(C)C)NC(=O)[C@H](Cc1c[nH]c2ccccc12)NC(=O)[C@H](CC(N)=O)NC(=O)[C@@H](NC(=O)[C@H](Cc1ccccc1)NC(=O)[C@H](CCC(=O)O)NC(=O)C(C)(C)NC(=O)[C@H](C)NC(=O)[C@H](C)NC(=O)[C@H](CCC(N)=O)NC(=O)[C@H](CCCCN)NC(=O)[C@H](CC(=O)O)NC(=O)[C@H](CC(C)C)NC(=O)[C@H](Cc1ccc(O)cc1)NC(=O)[C@@H](NC(=O)[C@H](CO)NC(=O)[C@H](Cc1ccc(O)cc1)NC(=O)[C@H](CC(=O)O)NC(=O)[C@H](CO)NC(=O)[C@@H](NC(=O)[C@H](Cc1ccccc1)NC(=O)[C@@H](NC(=O)CNC(=O)[C@H](CCC(N)=O)NC(=O)C(C)(C)NC(=O)[C@@H](N)Cc1ccc(O)cc1)[C@@H](C)O)[C@@H](C)O)[C@@H](C)CC)C(C)C)C(N)=O [mt-277] (H-Y[Aib]QGTFTSDYSIYLDKQAA[Aib]EFVNWLLAGGPSSGAPPPSK(Myristoyl)-NH2; N-terminus assumed)	0.0215 nM	235%	235.35%	224%	224.42%	–	446%	455.77%	exhibited activity at the GIP, GLP-1, and glucagon receptors	caused significant weight loss in the mice
